Experimental data: US20250114455A1, “RADIOSENSITIZING COMPOSITIONS AND METHODS OF USE THEREOF” (University of Georgia Research Foundation, Inc., priority 2022, published 2025)
Where a SMILES comes first, the peptide text is derived from it. [ ]: non-standard residue; d: D form. The star is where a group is joined. ξ: configuration not given here. ξGly(4-Pip(1-amidino)) = N=C(N)N1CCC(C(N)C(=O)O)CC1; ξGly(piperidin-4-yl) = NC(C(=O)O)C1CCNCC1; ξTle = CC(C)(C)C(N)C(=O)O; ξP = O=C(O)C1CCCN1; X1 = CC(CS)C(=O)*

Assays:
[1] = LC/MS analysis of autooxidation and lipid peroxidation; details: 320 kV, 5 Gy
Protocol: Samples were generated by mixing solutions of 10 mg/mL 7-DHC, or 5 mg/mL DHCEO in 5 mL solvent containing 4 mL CH3CN+1 mL Mil-Q-H2O (or 1 mL H2O2). Samples were treated with either PBS or 5 Gy IR followed by incubation for 24 h. The lipid sample was prepared by using 16:0-18:2 PC mixed with 7-DHC at a 3:1 mole ratio in 2:1 v/v of CHCl3:MeOH solution. The solvent was then rotor evaporated and the mixture was rehydrated in 1 mL Mil-Q-H2O. Samples were subjected to LC/MS analysis. Liquid chromatography was performed on an Applied Biosystems 140 B solvent delivery system using water with 0.1% formic acid as solvent A and acetonitrile as solvent B. The linear solvent gradient was from 70% B to 95% B over 20 minutes at a flow rate of 50 μl/min. A Thermo Hypersil-Keystone 1×150 mm Biobasic-4 column with 5 μm particle size and 300 A pore size was used. The effluent was directed into a Bruker Daltonics Esquire 3000 plus ion trap mass spectrometer equipped with an atmospheric pressure chemical ionization (electrospray ionization for the lipid sample) source. The instrument was scanned in enhanced mode from 340-500 m/z with the capillary at 4 KV. The dry as temperature was held at 300 degrees C. at a flow rate of 41/min nitrogen. The nebulizer was set to 15 PSI of nitrogen. The vaporizer temperature was held at 380 degrees C.

MTT cell viability assay = format: cell-based, murine; details: mouse, CT26 cells, no radiation, read-out: IC50 (cytotoxicity)
Protocol: (§1) CT26, a murine colorectal carcinoma cell line, was cultured following the protocol provided by the ATCC. A complete growth medium was prepared by adding 50 mL fetal bovine serum (FBS; Atlanta Biologicals, Cat #S11150) and 5 mL penicillin-streptomycin (Corning Cat #30-002-CI) to 450 mL of RPMI 1640 medium (Corning, Cat #10-104-CV). The cells were sub-cultured every three days and stored in a Thermo Scientific Heracell 150i incubator at 37° C. A day before the experiment, the cells were washed with PBS and collected by trypsinization (37° C., 2 min) followed by neutralization with cell culture medium and centrifugation (1200 rpm, 5 min). The supernatant was removed, and cells were dispersed in new cell culture medium. The cell density was counted using a hemocytometer (Hausser Scientific, Cat #3200) to seed the desired number of cells on the experimental plate(s).
(§2) The cell viability was studied with CT26 cells using the standard MTT assays. Briefly, CT26 cells (10,000 cells per well) were seeded on clear 96-well plates (Corning Costar, Cat #3599). […] 20 μL of 10 mg/mL 3-(4,5-Dimethylthiazolyl-2)-2,5-diphenyltetrazolium bromide (MTT) solution was added into each well. After 4 h incubation at 37° C. and 5% CO2, the solution was discarded from each well, and 100 μL of DMSO was added to each well resulting in purple suspensions. The absorbance at 570 nm was measured using a BioTek Synergy MX multi-mode microplate reader.

CT26 cells = experiment: MTT cell viability assay; format: cell-based, murine; details: 24 h; for toxicity / viability drop in the absence of radiation: 7-DHC concentration below 12.5 μg/mL
Protocol: as §1, §2

[2] = cited from earlier work
NTSR1 = NTSR1 (Homo sapiens, UniProt P30989); details: compared to wildtype NTS; cited from earlier work
Sequence of NTSR1 (P30989 whole entry): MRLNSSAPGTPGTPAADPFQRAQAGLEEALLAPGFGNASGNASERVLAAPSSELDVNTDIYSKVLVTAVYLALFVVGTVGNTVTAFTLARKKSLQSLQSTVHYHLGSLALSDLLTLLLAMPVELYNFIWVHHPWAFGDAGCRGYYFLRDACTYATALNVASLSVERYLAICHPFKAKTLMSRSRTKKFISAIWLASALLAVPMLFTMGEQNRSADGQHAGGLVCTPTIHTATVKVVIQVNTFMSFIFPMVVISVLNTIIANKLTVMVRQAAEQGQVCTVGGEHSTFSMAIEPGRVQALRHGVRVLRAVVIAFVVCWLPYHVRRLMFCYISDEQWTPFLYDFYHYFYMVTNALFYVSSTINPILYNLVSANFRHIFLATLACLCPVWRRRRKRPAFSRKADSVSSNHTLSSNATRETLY

[3] = compared to wildtype NTS; cited from earlier work
serum calcium level = format: in vivo, balb/c mice; details: 200 μg/kg injected, healthy mice; tolerated level for mice 8.0-11.5 mg/dl
Protocol: Blood samples were collected at 0, 2, 6, and 24 h for analysis.

SMILES: CC(C)CCC[C@@H](C)[C@H]1CC[C@H]2C3=CC=C4C[C@@H](O)CC[C@]4(C)[C@H]3CC[C@]12C [7-DHC, 7-dehydrocholesterol]
- conversion after radiation (LC/MS) [1]: converted to oxysterols
- IC50 at 24 h (MTT cell viability assay): 71.4 mg/L
- toxicity / viability drop in the absence of radiation (CT26 cells): Neither 7-DHC nor 7-DHC@PLGA NPs caused significant viability drop
- toxicity / viability drop in the absence of radiation (CT26 cells; listed as free 7-DHC): minimal toxicity
- solubility in water [2]: poorly soluble in water

SMILES: CC(C)C[C@H](NC(=O)C(NC(=O)[C@H](Cc1ccc(O)cc1)NC(=O)C1CCCN1C(=O)[C@H](CCCNC(=N)N)NC(=O)C(NC(=O)C1CCCN1C(=O)C(NC(=O)C(C)CS)C1CCNCC1)C1CCN(C(=N)N)CC1)C(C)(C)C)C(=O)O (stereo partly drawn) [NTSmut] (X1-[ξGly(piperidin-4-yl)][ξP][ξGly(4-Pip(1-amidino))]R[ξP]Y[ξTle]L-OH)
- avidity to NTSR1 (NTSR1): nanomolar
- biological stability [3]: much greater biological stability

SMILES: C=C1/C(=C\C=C2/CCC[C@]3(C)[C@@H]([C@H](C)CCCC(C)(C)O)CC[C@@H]23)C[C@@H](O)C[C@@H]1O [calcitriol]
- serum calcium (serum calcium level): 17.5 mg/dL

SMILES: NCCC(=O)N[C@@H](Cc1cnc[nH]1)C(=O)O [carnosine, reference compound]
- effect of co-incubation on toxicity induced by 7-DHC@PLGA NPs+IR (CT26 cells; MTT, IR 5 Gy): mitigated toxicity
